Test results from patent US20250339389A1, “N-ARACHIDONOYL ETHANOLAMINE COMPOSITION AND USE THEREOF” (NANJING NUTRABUILDING BIO-TECH CO., LTD., priority 2023, published 2025).

Assays:
[1] = system: mood and depressive behavior; assay: Forced swimming test; format: in vivo, C57BL/6J mice; conditions: AEA 20 mg/kg/day
Description: (§1) Experimental materials: The experimental animals used in this experiment are male C57BL/6J mice, 6 weeks old, with an initial weight of 18-22 g and SPF grade. The feeding environment of the mice is room temperature of 22±1° C. and humidity of 55±10%, and the mice are fed with normal feed. Mice were randomly divided into blank control group and AEA group, with 10 mice in each group. The AEA group was given a dose of 20 mg/kg/day, while the blank control group was given distilled water of the same volume.
(§2) Experimental method: Tail suspension test and forced swimming test were used to evaluate mood and depressive behavior. Forced swimming test: put a single mouse into a beaker and keep the water temperature at (25±2)° C. The experiment lasted for 6 min, and the immobility time of mice within 4 min was calculated. Tail suspension test: a mouse was fixed at the back ⅓ of the tail end with adhesive tape and hung upside down on an iron bar, with its head 10 cm away from the bottom of the box. The experiment lasted for 6 min, and the immobility time of mice within 4 min was calculated.

Salmonella = assay: Relative abundance of Salmonella in feces of high-fat diet mice (16S rDNA sequencing); format: in vivo; conditions: obese mice induced by high-fat diet, AEA 20 mg/kg once a day, four weeks
Description: (§3) After a week of adaptive feeding, mice were randomly divided into three groups according to sex and weight: group 1, normal group, n=10; group 2, high-fat diet group, n=10; and group 3, high-fat diet+AEA group, n=10. The normal group was given normal feed, while the high-fat diet group was given high-fat and high-sugar feed (containing 35% fat, 18% protein and 47% carbohydrate), and the high-fat diet+AEA group was given high-fat and high-sugar feed containing AEA (20 mg/kg), for four weeks. The specific gavage scheme is: calculate and gavage once a day according to the weight of mice, while the normal group gavage with the same amount of normal saline. Four samples of mouse feces were randomly taken from each group. The samples were first extracted for DNA, 16S rDNA was amplified by PCR, and then sequenced, and the relative abundance of each strain was analyzed.
(§4) FIG. 2 is a graph showing changes in the relative abundance of Roseburia. […] FIG. 3 is a graph showing changes in the relative abundance of Bacteroides. […] After AEA treatment, the level of Bacteroides in obese mice induced by high-fat diet increased by 20%. FIG. 4 is a graph showing changes in the relative abundance of Prevotella. […] After AEA treatment, the level of Prevotella in obese mice induced by high-fat diet increased by 25%. FIG. 5 is a graph showing changes in the relative abundance of Salmonella. […]

Roseburia = assay: Relative abundance of Roseburia in feces of high-fat diet mice (16S rDNA sequencing); format: in vivo; conditions: high-fat+AEA group, AEA 20 mg/kg once a day, four weeks
Description: as §3, §4

Bacteroides/Firmicutes = assay: Relative abundance ratio of Bacteroides and Firmicutes in feces of high-fat diet mice (16S rDNA sequencing); format: in vivo; conditions: obese mice induced by high-fat diet, AEA 20 mg/kg once a day, four weeks
Description: as §3
Abundance ratio of Bacteroides and Firmicutes: Bacteroides is the representative of intestinal probiotics and Firmicutes is the representative of intestinal harmful bacteria. The higher the ratio, the healthier the intestinal flora is.

acute colitis model = assay: DSS-induced acute colitis model, disease activity index (DAI); format: in vivo, mice; conditions: 3% DSS for 9 days, AEA daily dose 2.5 mg/kg; model group close to 3
Text: Experimental method: Thirty 4-6-week-old mice, 15 males and 15 females, were selected for adaptive feeding for 7 days in advance. They were randomly divided into control group (CON), model group (DSS) and administration group (DSS+AEA), with 10 mice in each group. The model group and the administration group were gavaged with 3% dextran sodium sulfate (DSS) for 9 days to establish an acute colitis model, while the control group was gavaged with the same amount of normal saline every day. The weight, feces and rectal bleeding of mice were recorded every day, and the disease activity index (DAI) was used to evaluate the condition of colitis. The DAI value was obtained by adding all the scores and dividing them by three. Mice in the administration group were given AEA at a daily dose of 2.5 mg/kg. On the 10th day, blood was taken from the orbit of each mouse, and then it was killed. Colon tissues were collected, fixed in 4% paraformaldehyde solution and stored at −80° C. for subsequent analysis. The pathological damage of colon tissue was examined by hematoxylin-eosin staining and Alxin blue staining.

[2] = system: mechanical pain sensitivity; assay: SNL model (L5 spinal nerve ligation), Von Frey mechanical pain sensitivity; format: in vivo, ICR mice
Description: Experimental material: The experimental animals used in this experiment are male ICR mice, with an initial weight of 30±2 g and SPF grade. The feeding environment of the mice is room temperature of 22±2° C., and the humidity is controlled at 70%-80%. Mice were free to drink water and eat, and fed with normal feed.
Experimental method: Preparation of animal model: Establishment of SNL model of ligation of the fifth spinal nerve on the left lumbar vertebra in mice: After the animals were anesthetized with isoflurane, the L5 transverse process on the left back was exposed, the L5 nerve was dissociated and ligated with No.6 ophthalmic thread, and the wound was treated with penicillin and then sutured. In Sham group, only L5 transverse process was exposed without nerve ligation. After the model was established, the behavior of mice was observed, and the individuals with impaired motor behavior were excluded. […] Grouping and administration: Mice were randomly divided into Sham group, model group and AEA group (20 mg/kg/day), with 8 mice in each group. The three groups were administered by gavage for 16 d, wherein the Sham group and model group were given the same volume of distilled water by gavage. Von Frey method was used to detect the mechanical pain sensitivity of mice: after administration, the mice were placed in an organic glass box in a quiet room to adapt for 1.5 h, so that the mice were in a resting state. Von Frey fibers were used to continuously stimulate the L5 nerve reflex area on the sole of the operated hind limb for 3˜4 s, and the test was conducted for 4 times, with an interval of 5 min each time, and the threshold of 50% mechanical foot retraction of the hind paw was recorded.

Bacteroides = assay: Relative abundance of Bacteroides in feces of high-fat diet mice (16S rDNA sequencing); format: in vivo; conditions: obese mice induced by high-fat diet, AEA 20 mg/kg once a day, four weeks
Description: as §3, §4

[3] = system: mood and depressive behavior; assay: Tail suspension test; format: in vivo, C57BL/6J mice; conditions: AEA 20 mg/kg/day
Description: as §1, §2

Escherichia coli = assay: Relative abundance of Escherichia coli in feces of high-fat diet mice (16S rDNA sequencing); format: in vivo; conditions: obese mice induced by high-fat diet, AEA 20 mg/kg once a day, four weeks
Description: as §3, §4

Prevotella = assay: Relative abundance of Prevotella in feces of high-fat diet mice (16S rDNA sequencing); format: in vivo; conditions: obese mice induced by high-fat diet, AEA 20 mg/kg once a day, four weeks
Description: as §3, §4

CCCCC/C=C\C/C=C\C/C=C\C/C=C\CCCC(=O)NCCO [AEA, N-arachidonoyl ethanolamine]
reduction of immobility time compared with the blank group, forced swimming test [1]: 23% | decrease of Salmonella level after AEA treatment (Salmonella): 20% | level (relative abundance) of Roseburia (Roseburia): close to that in normal mice | ratio of Bacteroides/Firmicutes (Bacteroides/Firmicutes): increased after AEA administration, which was close to the level of normal group | DAI score (acute colitis model): about 2 | threshold of 50% foot contraction ([2]; administration 1 d, AEA 20 mg/kg/day by gavage, SNL model 0.005 ± 0.002): 0.010 ± 0.010 | threshold of 50% foot contraction ([2]; administration 6 d, AEA 20 mg/kg/day by gavage, SNL model 0.019 ± 0.008): 0.067 ± 0.013 | threshold of 50% foot contraction ([2]; administration 11 d, AEA 20 mg/kg/day by gavage, SNL model 0.018 ± 0.018): 0.133 ± 0.023 | threshold of 50% foot contraction ([2]; administration 16 d, AEA 20 mg/kg/day by gavage, SNL model 0.020 ± 0.018): 0.193 ± 0.002 | threshold of 50% foot contraction compared with the SNL model (in words) ([2]; after 6 days of administration, AEA 20 mg/kg/day by gavage): increased significantly | threshold of 50% foot contraction ([2]; before modeling (baseline)): 0.323 ± 0.040 | increase of level of Bacteroides after AEA treatment (Bacteroides): 20% | reduction of immobility time compared with the blank group, tail suspension test [3]: 28% | decrease of level of Escherichia coli after AEA treatment (Escherichia coli): 42% | increase of level of Prevotella after AEA treatment (Prevotella): 25%
